Measurements: ChEMBL document CHEMBL1201862, “PubChem BioAssay data set” (2004)
Structures can show the parent of a compound that is named as a salt. Each block holds one molecule with its values, some of them ahead of it. Active and inactive are the calls of the source.

Legend:
Insulin-degrading enzyme [1] = target: T1, Insulin-degrading enzyme (Homo sapiens, UniProt P14735); experiment: cellular IDE activation of Abeta substrate cleavage – fluorescence polarization, HEK cells, dose response (AID 588439); type: functional, cell-based
T1 sequence (P14735 whole entry): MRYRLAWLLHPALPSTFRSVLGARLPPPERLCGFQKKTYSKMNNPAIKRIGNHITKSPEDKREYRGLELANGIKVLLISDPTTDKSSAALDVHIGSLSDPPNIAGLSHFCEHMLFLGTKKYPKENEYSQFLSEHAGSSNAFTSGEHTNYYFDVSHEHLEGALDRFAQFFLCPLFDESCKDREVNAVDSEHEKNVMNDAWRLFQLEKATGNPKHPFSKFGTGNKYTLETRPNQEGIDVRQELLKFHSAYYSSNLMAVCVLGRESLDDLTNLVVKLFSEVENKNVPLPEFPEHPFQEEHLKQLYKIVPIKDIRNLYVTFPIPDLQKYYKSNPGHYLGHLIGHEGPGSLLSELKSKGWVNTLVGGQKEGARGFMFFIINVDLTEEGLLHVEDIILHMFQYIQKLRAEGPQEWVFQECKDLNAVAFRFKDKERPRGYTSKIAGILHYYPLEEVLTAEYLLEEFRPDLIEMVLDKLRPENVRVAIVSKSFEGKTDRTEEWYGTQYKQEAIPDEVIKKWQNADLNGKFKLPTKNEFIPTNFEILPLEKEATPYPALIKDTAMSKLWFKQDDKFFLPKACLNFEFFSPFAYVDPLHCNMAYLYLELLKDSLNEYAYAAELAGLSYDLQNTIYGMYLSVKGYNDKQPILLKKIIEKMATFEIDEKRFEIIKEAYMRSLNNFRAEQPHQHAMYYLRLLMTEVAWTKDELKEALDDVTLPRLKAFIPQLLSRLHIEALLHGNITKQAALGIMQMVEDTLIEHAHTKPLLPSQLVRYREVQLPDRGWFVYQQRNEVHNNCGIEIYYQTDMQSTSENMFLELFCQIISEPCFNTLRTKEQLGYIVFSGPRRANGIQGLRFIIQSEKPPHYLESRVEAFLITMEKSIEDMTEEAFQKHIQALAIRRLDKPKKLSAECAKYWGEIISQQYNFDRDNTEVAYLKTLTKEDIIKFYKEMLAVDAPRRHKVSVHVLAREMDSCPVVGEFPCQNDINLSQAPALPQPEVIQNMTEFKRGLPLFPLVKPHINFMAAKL

Insulin-degrading enzyme [2] = target: T1, Insulin-degrading enzyme; experiment: recombinant IDE activation, cell-free – biochemical, fluorescence polarization, counter-screen for IDE activator project, dose response (AID 588681)
HEK293 [3] = experiment: optical interference in Abeta FP readout, dose response, artefact control for IDE activator project, biochemical, fluorescence polarization (AID 588442); type: functional, cell-based; details: Homo sapiens
HEK293 [4] = experiment: membrane integrity loss in HEK cells – cell-based, fluorescence, cytotoxicity control for IDE activator project, dose response (AID 588440); type: functional; details: Homo sapiens;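 further: cytotoxicity by LDH release measuring loss of membrane integrity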
Prothrombin = Prothrombin (Bos taurus, UniProt P00735); experiment: thrombin protease inhibitors – biochemical, fluorescence polarization, uHTS hits, dose response (AID 602369); type: functional
[5] = target: 26S proteasome non-ATPase regulatory subunit 14 (Homo sapiens, UniProt O00487); experiment: inhibition of proteasome subunit RPN11 – biochemical, fluorescence polarization, uHTS hits, confirmation (AID 602368); type: functional
Sequence of 26S proteasome non-ATPase regulatory subunit 14 (O00487 whole entry): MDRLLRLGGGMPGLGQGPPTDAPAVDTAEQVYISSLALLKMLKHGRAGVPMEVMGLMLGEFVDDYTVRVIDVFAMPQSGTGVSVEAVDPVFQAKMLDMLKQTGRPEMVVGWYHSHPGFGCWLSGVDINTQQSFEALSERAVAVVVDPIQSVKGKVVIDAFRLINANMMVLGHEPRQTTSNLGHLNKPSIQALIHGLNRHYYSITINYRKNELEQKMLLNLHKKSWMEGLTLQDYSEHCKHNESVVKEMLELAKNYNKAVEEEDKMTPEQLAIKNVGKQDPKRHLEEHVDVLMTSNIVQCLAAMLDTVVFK

[6] = target: 72 kDa type IV collagenase (Homo sapiens, UniProt P08253); experiment: Dose Response validation of uHTS RPN11 inhibitor hits using a MMP-2 Fluorescence assay.; type: functional
Sequence of 72 kDa type IV collagenase (P08253 whole entry): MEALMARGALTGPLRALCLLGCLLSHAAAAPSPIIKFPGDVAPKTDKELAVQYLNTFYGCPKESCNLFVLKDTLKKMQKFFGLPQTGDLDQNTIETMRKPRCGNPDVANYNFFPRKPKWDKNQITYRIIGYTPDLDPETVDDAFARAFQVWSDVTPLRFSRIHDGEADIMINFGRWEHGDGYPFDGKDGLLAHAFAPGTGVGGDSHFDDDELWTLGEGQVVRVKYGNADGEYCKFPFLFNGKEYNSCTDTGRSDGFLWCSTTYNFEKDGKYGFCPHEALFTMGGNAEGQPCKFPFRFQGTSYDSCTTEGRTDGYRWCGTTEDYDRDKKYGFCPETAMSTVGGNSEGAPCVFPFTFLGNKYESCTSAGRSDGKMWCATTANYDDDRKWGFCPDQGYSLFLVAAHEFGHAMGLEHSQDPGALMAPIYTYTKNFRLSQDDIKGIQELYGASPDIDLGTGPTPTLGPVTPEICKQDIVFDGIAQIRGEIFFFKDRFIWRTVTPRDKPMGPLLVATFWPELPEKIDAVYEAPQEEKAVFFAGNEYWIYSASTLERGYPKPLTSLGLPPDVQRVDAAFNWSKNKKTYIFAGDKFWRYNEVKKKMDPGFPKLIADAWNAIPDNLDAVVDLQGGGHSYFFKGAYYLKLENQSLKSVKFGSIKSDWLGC

SUMO-activating enzyme = SUMO-activating enzyme (Homo sapiens, UniProt Q9UBT2); experiment: blockers of SAE1/SAE2–UBC9 SUMO transfer – biochemical, HTRF, uHTS, primary screen (AID 2006); type: protein-complex assay
Sequence of SUMO-activating enzyme (Q9UBE0 whole entry): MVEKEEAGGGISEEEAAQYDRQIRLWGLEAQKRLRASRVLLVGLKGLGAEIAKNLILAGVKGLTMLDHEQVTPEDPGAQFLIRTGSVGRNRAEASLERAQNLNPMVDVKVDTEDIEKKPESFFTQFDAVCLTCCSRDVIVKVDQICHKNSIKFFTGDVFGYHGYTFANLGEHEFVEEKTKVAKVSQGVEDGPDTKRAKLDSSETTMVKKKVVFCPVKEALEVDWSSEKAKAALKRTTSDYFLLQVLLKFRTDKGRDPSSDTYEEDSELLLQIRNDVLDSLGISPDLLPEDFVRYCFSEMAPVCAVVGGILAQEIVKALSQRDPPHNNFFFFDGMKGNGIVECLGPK
Sequence of SUMO-activating enzyme (Q9UBT2 whole entry): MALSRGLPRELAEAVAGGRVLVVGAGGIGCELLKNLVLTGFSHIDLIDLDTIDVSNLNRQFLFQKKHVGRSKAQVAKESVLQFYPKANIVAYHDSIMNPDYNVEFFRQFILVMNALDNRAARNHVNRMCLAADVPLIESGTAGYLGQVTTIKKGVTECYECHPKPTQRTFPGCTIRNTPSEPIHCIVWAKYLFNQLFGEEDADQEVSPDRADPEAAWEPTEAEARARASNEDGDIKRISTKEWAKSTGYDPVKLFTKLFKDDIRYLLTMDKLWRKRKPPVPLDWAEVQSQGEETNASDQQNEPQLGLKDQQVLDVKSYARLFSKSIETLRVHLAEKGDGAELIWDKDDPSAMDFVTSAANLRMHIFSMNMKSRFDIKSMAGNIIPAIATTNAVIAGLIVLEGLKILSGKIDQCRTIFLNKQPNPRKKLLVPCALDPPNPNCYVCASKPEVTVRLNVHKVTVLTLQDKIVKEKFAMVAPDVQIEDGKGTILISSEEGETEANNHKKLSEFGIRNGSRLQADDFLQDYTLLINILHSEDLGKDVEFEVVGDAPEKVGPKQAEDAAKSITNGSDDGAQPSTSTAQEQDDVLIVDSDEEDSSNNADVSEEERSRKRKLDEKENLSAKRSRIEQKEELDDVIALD

[7] = target: T2, Ubiquitin-conjugating enzyme E2 N (Homo sapiens, UniProt P61088); type: functional
T2 sequence (P61088 whole entry): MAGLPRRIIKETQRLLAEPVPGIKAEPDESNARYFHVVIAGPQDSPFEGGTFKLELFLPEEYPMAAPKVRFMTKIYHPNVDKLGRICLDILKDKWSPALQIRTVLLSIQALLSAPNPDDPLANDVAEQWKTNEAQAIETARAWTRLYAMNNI

[8] = target: T3, Apoptotic protease-activating factor 1 (Homo sapiens, UniProt O14727); type: functional
T3 sequence (O14727 whole entry): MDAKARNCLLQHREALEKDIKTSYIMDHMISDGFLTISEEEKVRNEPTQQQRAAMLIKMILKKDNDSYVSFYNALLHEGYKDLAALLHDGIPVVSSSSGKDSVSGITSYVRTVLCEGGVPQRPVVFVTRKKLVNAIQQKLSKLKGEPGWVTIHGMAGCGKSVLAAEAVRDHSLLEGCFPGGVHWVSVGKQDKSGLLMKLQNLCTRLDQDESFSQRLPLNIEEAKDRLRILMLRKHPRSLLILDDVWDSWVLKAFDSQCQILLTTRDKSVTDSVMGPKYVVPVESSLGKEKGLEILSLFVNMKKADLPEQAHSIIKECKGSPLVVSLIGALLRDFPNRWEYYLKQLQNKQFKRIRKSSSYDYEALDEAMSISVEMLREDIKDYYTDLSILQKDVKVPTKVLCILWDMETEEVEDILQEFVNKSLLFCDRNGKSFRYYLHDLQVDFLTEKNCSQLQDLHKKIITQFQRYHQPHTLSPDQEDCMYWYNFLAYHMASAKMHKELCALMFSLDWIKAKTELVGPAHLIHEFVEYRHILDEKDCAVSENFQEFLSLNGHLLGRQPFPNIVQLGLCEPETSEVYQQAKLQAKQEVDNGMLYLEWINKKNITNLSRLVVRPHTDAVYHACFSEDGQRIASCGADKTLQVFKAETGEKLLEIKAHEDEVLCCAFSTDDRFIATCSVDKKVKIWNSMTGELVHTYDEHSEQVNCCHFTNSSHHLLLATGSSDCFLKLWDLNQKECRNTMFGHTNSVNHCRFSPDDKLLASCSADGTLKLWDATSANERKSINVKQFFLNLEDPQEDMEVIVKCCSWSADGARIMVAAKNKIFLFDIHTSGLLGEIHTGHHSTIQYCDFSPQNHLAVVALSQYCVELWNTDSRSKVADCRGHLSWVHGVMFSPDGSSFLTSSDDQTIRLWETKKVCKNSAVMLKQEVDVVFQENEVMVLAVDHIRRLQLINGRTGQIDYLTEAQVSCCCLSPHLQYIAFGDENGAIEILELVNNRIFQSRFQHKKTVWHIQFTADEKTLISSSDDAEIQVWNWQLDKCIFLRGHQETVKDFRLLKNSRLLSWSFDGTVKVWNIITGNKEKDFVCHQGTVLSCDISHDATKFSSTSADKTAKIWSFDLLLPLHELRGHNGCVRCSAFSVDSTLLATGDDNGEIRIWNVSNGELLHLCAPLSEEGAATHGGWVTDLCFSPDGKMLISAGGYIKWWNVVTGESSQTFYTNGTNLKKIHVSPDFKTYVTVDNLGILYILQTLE

[9] = target: T2, Ubiquitin-conjugating enzyme E2 N; type: functional; remark: listed apart in the source
Bcl-2-related protein A1 = target: T4, Bcl-2-related protein A1 (Mus musculus, UniProt Q07440); type: functional;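 further: confirmatory dose–response counterscreen on Bfl-1, used to check hits from a UBC13 polyubiquitin inhibitor campaign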
T4 sequence (Q07440 whole entry): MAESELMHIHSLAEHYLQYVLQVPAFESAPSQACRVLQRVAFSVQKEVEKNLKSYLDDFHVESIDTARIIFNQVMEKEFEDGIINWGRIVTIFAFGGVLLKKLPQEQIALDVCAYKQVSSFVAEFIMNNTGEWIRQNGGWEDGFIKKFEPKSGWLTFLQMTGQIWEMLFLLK

[10] = HEK-293T cell viability reduction – luminescence, B-cell screen hits, cytotoxicity control for BCR NF-kB inhibitor project, dose response (AID 489021); type: functional, cell-based;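 further: HEK-293T cells carrying an NF-kB luciferase reporter; cells exposed to compound for about 14 hours before viability readout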
Melanocortin receptor 4 = Melanocortin receptor 4 (Homo sapiens, UniProt P32245); experiment: inhibitors of MC4R cAMP signaling – cell-based, TR-FRET, biased antagonists, dose response (AID 602298); type: functional;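 further: antagonist potency against agonist-stimulated cAMP production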
Sequence of Melanocortin receptor 4 (P32245 whole entry): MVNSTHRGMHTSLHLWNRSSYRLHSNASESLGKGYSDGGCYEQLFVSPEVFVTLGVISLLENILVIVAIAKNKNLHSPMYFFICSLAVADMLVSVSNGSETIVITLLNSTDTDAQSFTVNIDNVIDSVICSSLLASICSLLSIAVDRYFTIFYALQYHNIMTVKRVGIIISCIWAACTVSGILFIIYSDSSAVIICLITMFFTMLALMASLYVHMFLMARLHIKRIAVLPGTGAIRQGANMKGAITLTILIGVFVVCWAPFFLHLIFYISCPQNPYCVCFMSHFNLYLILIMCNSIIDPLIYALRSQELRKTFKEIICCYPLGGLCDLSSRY

[11] = cAMP pathway inhibition in counterscreen cell line – TR-FRET cAMP detection, counter-screen for MC4R biased antagonist project, dose response (AID 602305); type: functional, cell-based;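 further: U2OS cells stimulated with forskolin near its EC80 as the cAMP inducer; potency is for inhibition of forskolin-stimulated cAMP signaling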
[12] = Luminescence Cell-Based Dose Retest to Confirm Inhibitors of Cancer Stem Cells. [Related pubchem assays (depositor defined):AID2717, AID2721]; type: functional; details: Homo sapiens
[13] = target: Neurotensin receptor type 1 (Homo sapiens, UniProt P30989); type: functional;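 further: Image-based confirmatory dose-response assay measuring agonist activity at NTR1; NTR1-expressing U2OS osteosarcoma cells imaged for beta-arrestin GFP spot formation; agonist potency where compounds increase beta-arrestin recruitment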
Sequence of Neurotensin receptor type 1 (P30989 whole entry): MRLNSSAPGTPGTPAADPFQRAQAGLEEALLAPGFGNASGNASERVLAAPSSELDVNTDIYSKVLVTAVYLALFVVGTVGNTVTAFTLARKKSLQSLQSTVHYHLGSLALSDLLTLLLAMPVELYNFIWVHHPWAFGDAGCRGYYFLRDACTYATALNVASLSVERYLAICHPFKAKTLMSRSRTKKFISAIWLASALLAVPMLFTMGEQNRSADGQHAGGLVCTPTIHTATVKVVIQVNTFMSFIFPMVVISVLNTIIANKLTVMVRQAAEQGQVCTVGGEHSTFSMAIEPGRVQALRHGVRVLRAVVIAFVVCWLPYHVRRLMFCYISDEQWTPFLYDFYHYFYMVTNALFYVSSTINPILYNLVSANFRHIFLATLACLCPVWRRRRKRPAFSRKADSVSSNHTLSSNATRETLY

INS1 = experiment: INS-1E survival protection against cytokine death – cell-based, luminescence, retest, dose response (AID 449756); type: functional; details: Rattus norvegicus;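 further: cell death triggered by IL-1 beta plus TNF-alpha plus IFN-gamma mixture; protective hits raise ATP signal compared with cytokine alone wells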
HEK293 [14] = experiment: EBV LMP1 TES2 canonical NF-kB signalling blockers – cell-based, HEK293, luciferase, cherry-pick, dose response (AID 588343); type: functional; details: Homo sapiens

SMILES: O=C(NCCSc1ccc(Br)cc1)c1ccc2[nH]cnc2c1
EC50 (Insulin-degrading enzyme [1]): > 54.7 µM (inactive)
EC50 (Insulin-degrading enzyme [2]): > 54.7 µM (inactive)
EC50 (HEK293 [3]): > 56 µM (inactive)
IC50 (HEK293 [4]): > 89.3 µM (inactive)

IC50 (Prothrombin): > 100 µM (inactive)
IC50 [5]: 8.54 µM (active)
IC50 [6]: > 100 µM (inactive)
IC50 (SUMO-activating enzyme): 49.8 µM (active)
SMILES: Sc1nnc(-c2cc(-c3ccccc3)[nH]n2)n1/N=C/c1ccc(Cl)c(Cl)c1

SMILES: C#CCOCCOCCOCCNc1nc(N2CCN(C(=O)CCCCCCCCCCNC(=O)Cn3cc(CCCCCN)nn3)CC2)nc(N2CCN(C(=O)CCCCCCCCCCNC(=O)[C@@H]([C@H](C)O)n3cc(C)nn3)CC2)n1
EC50 (Insulin-degrading enzyme [1]): > 6.07 µM (active)
IC50 [7]: 6.62 µM (active)
IC50 [8]: 36.7 µM (active)
EC50 (Insulin-degrading enzyme [2]): > 54.7 µM (inactive)
EC50 (HEK293 [3]): > 54.7 µM (inactive)
IC50 [9]: 10.7 µM (active)
IC50 (HEK293 [4]): 17.8 µM (inactive)
IC50 (Bcl-2-related protein A1): > 20 µM (inactive)

SMILES: CNC(=O)c1cc(Oc2ccc(NC(=O)Nc3ccc(Cl)c(C(F)(F)F)c3)cc2)ccn1 [SORAFENIB TOSYLATE]
IC50 [10]: 70.6 µM (inactive)
IC50 (Melanocortin receptor 4): 4.48 µM (active)
IC50 [11]: > 64.6 µM (inactive)
AC50 [12]: 2.04 µM (active)
EC50 [13]: 14.6 µM (active)
AC50 (INS1): 6.78 µM (active)
AC50 (HEK293 [14]): 1.6 µM (active)
